Paper PMC6470838 (Pharmaceutics, 2019)
Where two headings read alike, the source gives them in different places. Blank lines part the entries; values can stand above or below the molecule they belong to.

Experiments:
[1] = Rivaroxaban plasma pharmacokinetics after oral administration in rats (model independent analysis); type: in vivo, Sprague Dawley rats
Experimental: The animals used in this study were 15 Sprague Dawley rats (8-week-old males, 280–300 g). […] The study protocol was approved by the Institutional Animal Care and Use Committees (IACUC) at Chung-Ang University. All animals used in this study were cared for in accordance with the principles outlined in the National Institutes of Health Guide for the Care and Use of Laboratory Animals.
(§1) All drugs were suspended in corn oil and administered orally.
(§2) After centrifugation (17,000 rpm, 10 min), plasma samples were stored at –70 °C until analysis, using 30 μL of plasma.
Acetonitrile (90 μL) including flufenamic acid (10 ng/mL) was added to the plasma samples (30 μL). The mixture was vigorously vortexed for 10 s and centrifuged at 17,000 rpm for 10 min. A 5-μL sample of the supernatant was injected onto the LC-MS/MS.
The compounds were purified on a reversed-phase column (Atlantis® T3, 50 × 2.1 mm internal diameter, 3 µm particle size; Waters) at 30 °C.

prothrombin time [2] = test: Prothrombin time after oral administration of rivaroxaban in rats; type: in vivo, Sprague Dawley rats; conditions: for AUEC, area under the percentage increase of prothrombin time vs. time curve / Emax, maximum percentage increase of prothrombin time: rivaroxaban 2 mg/kg oral, alone or with verapamil 25 mg/kg or diltiazem 30 mg/kg, mean (RSD %), n = 5
Experimental: as §1, §2
Prothrombin time was measured using a blood coagulation analyzer (ACL 7000, Instrumentation Laboratory, Bedford, MA, USA) at Korea Conformity Laboratories (Incheon, Korea) using PT recombiPlasTin 2G reagent (Instrumentation Laboratory, Bedford, MA, USA).
The time courses of prothrombin time were used to determine pharmacodynamic parameters: peak effect observed (Emax,observed) was directly obtained from the individual time courses; and the area under the effect-time curve (AUECt) was calculated by the trapezoidal rule.

prothrombin time [3] = test system: prothrombin time
[4] = ketoconazole 400 mg, qd; cited from earlier work
prothrombin time [5] = conditions: humans; cited from earlier work
in vivo = conditions: male, Sprague Dawley, rat, plasma, oral, 2 mg/kg
[6] = diltiazem 30 mg/kg oral, rats, vs rivaroxaban alone
[7] = compared with rivaroxaban 2 mg/kg alone, verapamil 25 mg/kg oral, rats
[8] = male, Sprague Dawley, rat, plasma, po, 2 mg/kg
[9] = PK/PD model parameter of rivaroxaban, presence or absence of verapamil, mean (RSD %), n = 5

Effect of the co-administered drug on clearance and AUCinf of rivaroxaban [1, 6]: no statistical differences
Structure (SMILES): COc1ccc([C@@H]2Sc3ccccc3N(CCN(C)C)C(=O)[C@@H]2OC(C)=O)cc1 [diltiazem]
Effect of the co-administered drug on Emax and AUEC of prothrombin time (prothrombin time [2]; [6]): did not represent any significant changes

Structure (SMILES): COc1ccc(CCN(C)CCCC(C#N)(c2ccc(OC)c(OC)c2)C(C)C)cc1OC (stereo not shown) [Verapamil]
Increase of AUEC of prothrombin time by the co-administered drug (prothrombin time [2]; [7]): 2.6 fold | Increase of Emax of prothrombin time by the co-administered drug (prothrombin time [2]; [7]): 2.5 fold | Effect of the co-administered drug on the slope (percentage increase of prothrombin time vs. rivaroxaban concentration) (prothrombin time [3]; verapamil 25 mg/kg, rats): no difference

Structure (SMILES): CC(=O)N1CCN(c2ccc(OCC3COC(Cn4ccnc4)(c4ccc(Cl)cc4Cl)O3)cc2)CC1 (stereo not shown) [ketoconazole]
Effect of the concomitant drug on the systemic exposure of rivaroxaban [4]: significantly increased

AUC(0-inf) [1, 8]: 2700 ng·h/mL | CL/F [1, 8]: 12.9 mL/min/kg | Cmax [1, 8]: 373 ng/mL | Tmax [1, 8]: 2.8 h | AUCinf ([1]; rivaroxaban in plasma, rivaroxaban 2 mg/kg oral, alone or with verapamil 25 mg/kg or diltiazem 30 mg/kg, mean (RSD %), n = 5): 2700 ng·h/mL | f, absorption fraction (prothrombin time [3]; [9]): 0.61 (30) fraction | ka, absorption rate constant (prothrombin time [3]; [9]): 0.63 (22) h^−1 | ttransit, transit time (prothrombin time [3]; [9]): 6.37 (21) h | ttransit, transit time (prothrombin time [3]; PK/PD model parameter of rivaroxaban, presence or absence of verapamil, mean (RSD %), n = 5, listed as rivaroxaban): 6.4 h | Part of the dose initially absorbed, contributing to the first peak (prothrombin time [3]; rivaroxaban alone, model estimate): 40% | Vd/F (in vivo): 0.96 L/kg | k el (in vivo): 0.000236 s⁻¹
Structure (SMILES): O=C(NC[C@H]1CN(c2ccc(N3CCOCC3=O)cc2)C(=O)O1)c1ccc(Cl)s1 [Rivaroxaban]
AUEC, area under the percentage increase of prothrombin time vs. time curve (prothrombin time [2]): 188 (9) % ∙h | Emax, maximum percentage increase of prothrombin time (prothrombin time [2]): 30 (11) % | AUEC, area under the percentage increase of prothrombin time vs. time curve (prothrombin time [2]; listed as rivaroxaban): 188 % ∙h | Emax, maximum percentage increase of prothrombin time (prothrombin time [2]; listed as rivaroxaban): 30% | Slope, percentage increase of prothrombin time vs. rivaroxaban plasma concentration (prothrombin time [3]; [9]): 0.08 (44) %·mL/ng | Slope of relative prothrombin time (ratio of the baseline level) vs. rivaroxaban plasma concentration (prothrombin time [3]; rats, prothrombin times rescaled to ratio of baseline): 0.00054 | Slope of relative prothrombin time vs. rivaroxaban plasma concentration (prothrombin time [5]): approximately 0.0029
